According to PMC12422582, “A divergent cyclic nucleotide binding protein promotes Plasmodium ookinete infection of the mosquito” (PLOS Pathogens, 2025):

Experiments:
[1] = biological target: T1, CBP-O(ΔN-term), GFP-tagged (Plasmodium berghei, UniProt A0A509AL17); assay: cGMP-agarose pull-down from schizont lysate, anti-GFP western blot; format: biochemical; conditions: ligand immobilised as 8-AET-cGMP-Agarose; Hepes pH […]°C, […] h
T1 construct: gene PBANKA_1025300; endogenous locus edited: residues 1-1694 deleted, CNB1-4/X kept, GFP tag; P. berghei schizont lysate

[2] = biological target: T2, CNB3 of PbCBP-O (PbCNB3) (Plasmodium berghei, UniProt A0A509AL17); assay: cGMP-agarose pull-down, anti-His western blot; format: binding; conditions: ligand immobilised through position […] as 8-AET-cGMP-Agarose (BioLog); E. coli lysate, Hepes pH […]°C, […] h
T2 construct: gene PBANKA_1025300; N-terminal 6xHis, pET28a, E. coli Rosetta DE3, soluble lysate

Nc1nc2c(ncn2[C@@H]2O[C@@H]3COP(=O)(O)O[C@H]3[C@H]2O)c(=O)[nH]1 [cGMP]
cGMP-agarose pull-down from schizont lysate, anti-GFP western blot [1]: the N-term mutant retained cyclic nucleotide binding activity (Fig 6D)
cGMP-agarose pull-down, anti-His western blot [2]: CNB3 showed affinity for both cAMP and cGMP (Fig 6C)
